Values quoted from earlier work as cited in patent US11752152B1, “Pharmaceutical formulations of imatinib and uses thereof” (Exvastat Ltd, priority 2022, dated 2023).

Tested on: animal models of sepsis, acute lung injury and impaired microcirculatory perfusion
Settings: variety of animal models

In the case of `Cc1ccc(NC(=O)c2ccc(CN3CCN(C)CC3)cc2)cc1Nc1nccc(-c2cccnc2)n1` [Imatinib, 4-[(4-methylpiperazin-1-yl)methyl]-N-[4-methyl-3-[(4-pyridin-3-ylpyrimidin-2-yl)amino]phenyl]benzamide], the “effect on endothelial barrier, vascular leak and inflammation” value is listed as “protect the endothelial barrier, prevent vascular leak and reduce inflammation”.
